# Residues, ends and D or L forms follow the SMILES beside them.
# How the values were obtained:
# [1] = target: T1, Substance-K receptor (Homo sapiens) (UniProt P21452); experiment: Displacement of [125I]-NKA from NK2R (unknown origin) transfected in CHO cells at 10 uM by gamma counting analysis; format: cell-based
# T1 sequence (whole entry): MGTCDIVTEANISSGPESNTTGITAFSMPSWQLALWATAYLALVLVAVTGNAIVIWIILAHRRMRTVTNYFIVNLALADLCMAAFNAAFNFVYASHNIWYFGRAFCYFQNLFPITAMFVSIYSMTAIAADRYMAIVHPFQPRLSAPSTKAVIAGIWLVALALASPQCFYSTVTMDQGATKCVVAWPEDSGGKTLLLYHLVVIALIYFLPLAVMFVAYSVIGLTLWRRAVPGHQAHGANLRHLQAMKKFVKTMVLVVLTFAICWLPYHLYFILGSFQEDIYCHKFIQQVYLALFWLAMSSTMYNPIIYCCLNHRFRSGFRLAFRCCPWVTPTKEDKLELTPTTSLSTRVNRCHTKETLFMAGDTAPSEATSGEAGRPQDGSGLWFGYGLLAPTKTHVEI
# [2] = target: Substance-P receptor (Homo sapiens) (UniProt P25103); experiment: Displacement of [125I]-BH-SP from NK1R (unknown origin) transfected in CHO cells at 10 uM by gamma counting analysis; format: cell-based
# Neuromedin-K receptor [3] = target: T2, Neuromedin-K receptor (Homo sapiens, UniProt P29371); experiment: Agonist activity at NK3R (unknown origin) transfected in CHO cells assessed as calcium influx […]; format: functional, cell-based
# T2 sequence (P29371 whole entry): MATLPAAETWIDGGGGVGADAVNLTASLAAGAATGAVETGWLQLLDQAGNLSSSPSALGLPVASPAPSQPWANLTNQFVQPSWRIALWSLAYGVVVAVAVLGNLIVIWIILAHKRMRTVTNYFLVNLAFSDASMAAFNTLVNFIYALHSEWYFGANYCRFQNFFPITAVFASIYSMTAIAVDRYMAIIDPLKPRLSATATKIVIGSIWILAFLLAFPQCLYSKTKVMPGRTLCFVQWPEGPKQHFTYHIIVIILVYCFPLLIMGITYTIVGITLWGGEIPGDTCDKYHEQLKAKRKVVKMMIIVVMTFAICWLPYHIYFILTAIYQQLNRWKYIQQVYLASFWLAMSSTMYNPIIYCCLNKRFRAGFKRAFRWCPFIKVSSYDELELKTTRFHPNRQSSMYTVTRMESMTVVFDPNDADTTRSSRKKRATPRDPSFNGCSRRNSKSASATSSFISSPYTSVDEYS
# Neuromedin-K receptor [4] = target: T2, Neuromedin-K receptor; experiment: Displacement of ([125I]-His3, MePhe7)-NKB from NK3R (unknown origin) transfected in CHO cells by gamma counting analysis; format: cell-based
# Sequence of Substance-P receptor (Homo sapiens) (P25103 whole entry): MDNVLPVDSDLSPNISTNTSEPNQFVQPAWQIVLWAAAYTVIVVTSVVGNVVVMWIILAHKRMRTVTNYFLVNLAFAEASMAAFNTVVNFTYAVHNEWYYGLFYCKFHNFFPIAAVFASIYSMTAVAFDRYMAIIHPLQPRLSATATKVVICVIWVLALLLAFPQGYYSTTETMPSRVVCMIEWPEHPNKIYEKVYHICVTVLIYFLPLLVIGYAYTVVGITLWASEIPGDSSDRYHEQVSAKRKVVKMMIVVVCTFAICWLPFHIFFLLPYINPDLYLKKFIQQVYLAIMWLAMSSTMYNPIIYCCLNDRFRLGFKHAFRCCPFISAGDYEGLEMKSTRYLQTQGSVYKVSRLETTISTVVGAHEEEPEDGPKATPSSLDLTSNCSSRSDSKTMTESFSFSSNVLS
Molecule,inhibition [1],inhibition [2],EC50 (Neuromedin-K receptor [3]),IC50 (Neuromedin-K receptor [4])
H-DTGDKFYGLM-NH2 [SIALOKININ II],98%,99%,10.9 nM,1930 nM
CSCC[C@H](NC(=O)[C@H](CC(C)C)NC(=O)CNC(=O)[C@H](Cc1ccccc1)N(C)C(=O)[C@H](Cc1ccccc1)NC(=O)[C@H](CO)NC(=O)[C@H](CC(=O)O)NC(=O)[C@H](Cc1cnc[nH]1)NC(=O)[C@H](CCSC)NC(=O)[C@@H](N)CC(=O)O)C(N)=O (HELM PEPTIDE1{D.M.H.D.S.F.[meF].G.L.M.[am]}$$$$V2.0),31%,< 10%,0.04 nM,3.6 nM
CSCC[C@H](NC(=O)[C@H](CC(C)C)NC(=O)CNC(=O)[C@H](Cc1ccccc1)N(C)C(=O)[C@H](Cc1ccccc1)NC(=O)CNC(=O)[C@H](CC(=O)O)NC(=O)[C@H](Cc1cnc[nH]1)NC(=O)[C@H](CCSC)NC(=O)[C@@H](N)CC(=O)O)C(N)=O (HELM PEPTIDE1{D.M.H.D.G.F.[meF].G.L.M.[am]}$$$$V2.0),22%,< 10%,0.036 nM,13 nM
CSCC[C@H](NC(=O)[C@H](CC(C)C)NC(=O)CNC(=O)[C@H](Cc1ccccc1)N(C)C(=O)[C@H](Cc1ccccc1)NC(=O)[C@H](C)NC(=O)[C@H](CC(=O)O)NC(=O)[C@H](Cc1cnc[nH]1)NC(=O)[C@H](CCSC)NC(=O)[C@@H](N)CC(=O)O)C(N)=O (HELM PEPTIDE1{D.M.H.D.A.F.[meF].G.L.M.[am]}$$$$V2.0),33%,< 10%,0.012 nM,4.4 nM
CSCC[C@H](NC(=O)[C@H](CC(C)C)NC(=O)CNC(=O)[C@H](Cc1ccccc1)N(C)C(=O)[C@H](Cc1ccccc1)NC(=O)[C@H](Cc1cnc[nH]1)NC(=O)[C@H](CC(=O)O)NC(=O)[C@H](Cc1cnc[nH]1)NC(=O)[C@H](CCSC)NC(=O)[C@@H](N)CC(=O)O)C(N)=O (HELM PEPTIDE1{D.M.H.D.H.F.[meF].G.L.M.[am]}$$$$V2.0),47%,< 10%,0.017 nM,5.9 nM
CSCC[C@H](NC(=O)[C@H](CC(C)C)NC(=O)CNC(=O)[C@H](Cc1ccccc1)N(C)C(=O)[C@H](Cc1ccccc1)NC(=O)[C@H](CCC(=O)O)NC(=O)[C@H](CC(=O)O)NC(=O)[C@H](Cc1cnc[nH]1)NC(=O)[C@H](CCSC)NC(=O)[C@@H](N)CC(=O)O)C(N)=O (HELM PEPTIDE1{D.M.H.D.E.F.[meF].G.L.M.[am]}$$$$V2.0),< 10%,< 10%,0.024 nM,7.5 nM
CSCC[C@H](NC(=O)[C@H](CC(C)C)NC(=O)CNC(=O)[C@H](Cc1ccccc1)N(C)C(=O)[C@H](Cc1ccccc1)NC(=O)[C@H](CCSC)NC(=O)[C@H](CC(=O)O)NC(=O)[C@H](Cc1cnc[nH]1)NC(=O)[C@H](CCSC)NC(=O)[C@@H](N)CC(=O)O)C(N)=O (HELM PEPTIDE1{D.M.H.D.M.F.[meF].G.L.M.[am]}$$$$V2.0),41%,< 10%,0.032 nM,1.7 nM
CSCC[C@H](NC(=O)[C@H](CC(C)C)NC(=O)CNC(=O)[C@H](Cc1ccccc1)N(C)C(=O)[C@H](Cc1ccccc1)NC(=O)[C@H](CC(=O)O)NC(=O)[C@H](CC(=O)O)NC(=O)[C@H](CO)NC(=O)[C@H](CCCCN)NC(=O)[C@@H]1CCCN1C(=O)[C@@H](NC(=O)[C@@H](N)CC(=O)O)C(C)C)C(N)=O (HELM PEPTIDE1{D.V.P.K.S.D.D.F.[meF].G.L.M.[am]}$$$$V2.0),< 10%,< 10%,0.085 nM,27 nM
CSCC[C@H](NC(=O)[C@H](CC(C)C)NC(=O)CNC(=O)[C@H](Cc1ccccc1)N(C)C(=O)[C@H](Cc1ccccc1)NC(=O)[C@H](Cc1ccccc1)NC(=O)[C@H](CC(=O)O)NC(=O)[C@H](Cc1cnc[nH]1)NC(=O)[C@H](CCSC)NC(=O)[C@@H](N)CC(=O)O)C(N)=O (HELM PEPTIDE1{D.M.H.D.F.F.[meF].G.L.M.[am]}$$$$V2.0),57%,< 10%,0.013 nM,3 nM
CSCC[C@H](NC(=O)[C@H](CC(C)C)NC(=O)CNC(=O)[C@H](Cc1ccccc1)N(C)C(=O)[C@H](Cc1ccccc1)NC(=O)[C@H](CCC(N)=O)NC(=O)[C@H](CC(=O)O)NC(=O)[C@H](Cc1cnc[nH]1)NC(=O)[C@H](CCSC)NC(=O)[C@@H](N)CC(=O)O)C(N)=O (HELM PEPTIDE1{D.M.H.D.Q.F.[meF].G.L.M.[am]}$$$$V2.0),21%,24%,0.043 nM,4.6 nM
CSCC[C@H](NC(=O)[C@H](CC(C)C)NC(=O)CNC(=O)[C@H](Cc1ccccc1)N(C)C(=O)[C@H](Cc1ccccc1)NC(=O)[C@H](C)NC(=O)[C@H](CC(=O)O)NC(=O)[C@H](CCCCN)NC(=O)[C@H](CO)NC(=O)[C@@H]1CCCN1C(=O)[C@@H]1CCC(=O)N1)C(N)=O (HELM PEPTIDE1{[Glp].P.S.K.D.A.F.[meF].G.L.M.[am]}$$$$V2.0),26%,48%,0.071 nM,7 nM

# Now from value to molecule:
inhibition [1],inhibition [2],EC50 (Neuromedin-K receptor [3]),IC50 (Neuromedin-K receptor [4]),Molecule
79%,< 10%,0.28 nM,1.8 nM,CSCC[C@H](NC(=O)[C@H](CC(C)C)NC(=O)CNC(=O)[C@H](Cc1ccccc1)N(C)C(=O)[C@H](Cc1ccccc1)NC(=O)[C@H](Cc1c[nH]c2ccccc12)NC(=O)[C@H](CC(=O)O)NC(=O)[C@H](Cc1cnc[nH]1)NC(=O)[C@H](CCSC)NC(=O)[C@@H](N)CC(=O)O)C(N)=O (HELM PEPTIDE1{D.M.H.D.W.F.[meF].G.L.M.[am]}$$$$V2.0)
11%,46%,0.038 nM,13 nM,CSCC[C@H](NC(=O)[C@H](CC(C)C)NC(=O)CNC(=O)[C@H](Cc1ccccc1)N(C)C(=O)[C@H](Cc1ccccc1)NC(=O)[C@H](CCC(N)=O)NC(=O)[C@H](CC(=O)O)NC(=O)[C@H](CO)NC(=O)[C@H](CCCCN)NC(=O)[C@@H]1CCCN1C(=O)[C@@H](NC(=O)[C@@H](N)CC(=O)O)C(C)C)C(N)=O (HELM PEPTIDE1{D.V.P.K.S.D.Q.F.[meF].G.L.M.[am]}$$$$V2.0)
35%,40%,0.026 nM,11 nM,CSCC[C@H](NC(=O)[C@H](CC(C)C)NC(=O)CNC(=O)[C@H](Cc1ccccc1)N(C)C(=O)[C@H](Cc1ccccc1)NC(=O)[C@H](CCCCN)NC(=O)[C@H](CC(=O)O)NC(=O)[C@H](Cc1cnc[nH]1)NC(=O)[C@H](CCSC)NC(=O)[C@@H](N)CC(=O)O)C(N)=O (HELM PEPTIDE1{D.M.H.D.K.F.[meF].G.L.M.[am]}$$$$V2.0)
29%,< 10%,0.051 nM,6.9 nM,CSCC[C@H](NC(=O)[C@H](CC(C)C)NC(=O)CNC(=O)[C@H](Cc1ccccc1)N(C)C(=O)[C@H](Cc1ccccc1)NC(=O)[C@H](CC(C)C)NC(=O)[C@H](CC(=O)O)NC(=O)[C@H](Cc1cnc[nH]1)NC(=O)[C@H](CCSC)NC(=O)[C@@H](N)CC(=O)O)C(N)=O (HELM PEPTIDE1{D.M.H.D.L.F.[meF].G.L.M.[am]}$$$$V2.0)
< 10%,< 10%,0.078 nM,5.5 nM,CSCC[C@H](NC(=O)[C@H](CC(C)C)NC(=O)CNC(=O)[C@H](Cc1ccccc1)N(C)C(=O)[C@H](Cc1ccccc1)NC(=O)[C@H](CC(=O)O)NC(=O)[C@H](CC(=O)O)NC(=O)[C@H](CCCCN)NC(=O)[C@H](CO)NC(=O)[C@@H]1CCCN1C(=O)[C@@H]1CCC(=O)N1)C(N)=O (HELM PEPTIDE1{[Glp].P.S.K.D.D.F.[meF].G.L.M.[am]}$$$$V2.0)
< 10%,< 10%,0.13 nM,17 nM,CSCC[C@H](NC(=O)[C@H](CC(C)C)NC(=O)CNC(=O)[C@H](Cc1ccccc1)N(C)C(=O)[C@H](Cc1ccccc1)NC(=O)[C@H](CC(=O)O)NC(=O)[C@H](CC(N)=O)NC(=O)[C@@H]1CCCN1C(=O)[C@H](CO)NC(=O)[C@@H]1CCCN1C(=O)[C@@H]1CCC(=O)N1)C(N)=O (HELM PEPTIDE1{[Glp].P.S.P.N.D.F.[meF].G.L.M.[am]}$$$$V2.0)
51%,< 10%,0.072 nM,1.5 nM,CSCC[C@H](NC(=O)[C@H](CC(C)C)NC(=O)CNC(=O)[C@H](Cc1ccccc1)N(C)C(=O)[C@H](Cc1ccccc1)NC(=O)[C@H](Cc1ccc(O)cc1)NC(=O)[C@H](CC(=O)O)NC(=O)[C@H](Cc1cnc[nH]1)NC(=O)[C@H](CCSC)NC(=O)[C@@H](N)CC(=O)O)C(N)=O (HELM PEPTIDE1{D.M.H.D.Y.F.[meF].G.L.M.[am]}$$$$V2.0)

# — ChEMBL document CHEMBL2346651, “Structure-activity relationship study of tachykinin peptides for the development of novel neurokinin-3 receptor selective agonists” (Bioorg Med Chem, 2013)
